The values below come from patent US20120207733A1 (priority 2011, published 2012).

This test concerns DU-145 cells. The class given is cell-based, Human.

Structures are written as SMILES.

On to `C=C1[C@@H](C)[C@H]2[C@H](Cc3ccccc3)NC(=O)[C@]23[C@H](OC(C)=O)/C=C/[C@@](C)(O)C(=O)[C@@H](C)C/C=C/[C@H]3[C@@H]1O` [Cytochalasin-D], for which the “Effect on cell migration” value was “did not migrate”; the “Relative Wound Density at 24 Hours, Mean” value is 3.3 ± 0.2; the “Relative Wound Density at 24 Hours, Percent Relative to Media” value worked out at 4%.
